Measurements published in patent US20110092476A1, “Bicycloheteroaryl compounds as P2X7 modulators and uses thereof” (Renovis, Inc., priority 2006, published 2011).

Biological target: T1, P2X7 receptor (Homo sapiens, UniProt Q99572)
T1 construct: host or cells: THP-1 cells differentiated with LPS and IFN-γ
T1 sequence (Q99572 1-595): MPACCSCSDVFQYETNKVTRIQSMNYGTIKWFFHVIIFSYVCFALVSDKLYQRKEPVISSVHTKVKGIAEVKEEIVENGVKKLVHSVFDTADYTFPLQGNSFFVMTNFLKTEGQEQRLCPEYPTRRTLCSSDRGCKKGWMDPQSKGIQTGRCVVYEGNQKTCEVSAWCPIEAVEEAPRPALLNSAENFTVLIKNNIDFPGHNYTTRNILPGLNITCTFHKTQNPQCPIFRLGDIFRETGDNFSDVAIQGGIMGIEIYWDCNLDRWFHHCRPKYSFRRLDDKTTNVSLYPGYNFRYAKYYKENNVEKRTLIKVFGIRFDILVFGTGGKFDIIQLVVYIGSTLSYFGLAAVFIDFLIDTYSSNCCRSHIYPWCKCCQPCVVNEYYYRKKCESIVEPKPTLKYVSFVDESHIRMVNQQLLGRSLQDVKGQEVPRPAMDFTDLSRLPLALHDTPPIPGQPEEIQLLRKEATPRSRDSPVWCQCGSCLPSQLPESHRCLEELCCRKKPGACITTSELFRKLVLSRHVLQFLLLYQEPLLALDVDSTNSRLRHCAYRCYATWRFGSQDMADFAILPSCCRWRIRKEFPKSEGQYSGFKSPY
Assay: IL-1β release assay in differentiated THP-1 cells stimulated with BzATP (Example 9)
Format: cell-based
Details: 0.1 μM compound (symbols *); differentiated THP-1 cells, BzATP 250 uM; read-out: IL-1β % Inhib. @ 0.3 or 0.1 uM
Experimental: THP-1 cells (ATCC Cat #285-IF-100) are plated in 96 well plates at a concentration of 200,000 cells per well and allowed to differentiate in RPMI-1640 media (ATCC Cat #30-2001) containing 10% FBS, 100 IU/mL penicillin, 100 ug/mL streptomycin, 100 ng/mL LPS and 100 ng/mL IFN-γ for 16 hours. Following differentiation, the cells are treated for an additional 2 hours in RPMI-1640 media containing 100 IU/mL penicillin, 100 ug/mL streptomycin and fresh LPS at 100 ng/mL. The cells are then pretreated for 30 minutes with the compound of interest at the appropriate concentration in RPMI media containing 100 IU/mL penicillin, 100 ug/mL streptomycin. Following the pretreatment 2′,3′-O-(4-benzoylbenzoyl)-adenosine 5′-triphosphate (Sigma Aldrich Cat #B6396) is added to a final concentration of 250 uM and the cells are incubated for an additional 45 minutes. 30 uL of cell supernatant is then collected and IL-1β levels determined via ELISA (R&D systems Cat. #HSLB50) according to manufacturer's recommendations using the Tecan Safire plate reader. Background adjusted IL-1β levels of drug treated and non-treated cells are used to calculate the percent inhibition.
The compounds set forth in Table 1 were tested for activity in a cellular model as described herein. Specifically, cells were pretreated with differing amounts of the compound under test and released IL-1β determined as in Example 9, above. Measurements were made and IC50 values, presented in Table 2, below, were determined by fitting the data to a four parameter logistic equation using GraphPad Prism software (GraphPad Software, Inc). The equation may be expressed by the following formula:
Y=Bottom+(Top−Bottom)/(1+10̂((Log EC50−X)*HillSlope))
Where X is the logarithm of concentration, Y is the response and Y starts at Bottom and goes to Top with a sigmoid shape.

Compound	inhibition at 0.1 µM [%]
CC(O)Cn1ccc2c(NC(=O)c3cc(Cl)ccc3Cl)cccc2c1=O (stereo not shown) [Compound 138]	0 to 25
Cc1cc(C(=O)Nc2cccc3c(=O)n(CC(C)(C)O)ccc23)ccc1Cl [Compound 196]	0 to 25
COc1ccc(CC(=O)Nc2cccc3c(=O)n(C(C)CO)ccc23)cc1 (stereo not shown) [Compound 110]	0 to 25
COc1c(C)cc(C(=O)Nc2cccc3c(=O)n(CC(C)O)ccc23)cc1C (stereo not shown) [Compound 167]	0 to 25
COc1ccccc1CC(=O)Nc1cccc2c(=O)n(C(C)CO)ccc12 (stereo not shown) [Compound 107]	0 to 25
COc1ccc(C(=O)Nc2cccc3c(=O)n(CC(C)O)ccc23)cc1Cl (stereo not shown) [Compound 131]	0 to 25
CCOc1cccc(C(=O)Nc2cccc3c(=O)n(CC(C)(C)O)ccc23)c1 [Compound 193]	0 to 25
Cc1c(Cl)cccc1C(=O)Nc1cccc2c(=O)n(CC(C)O)ccc12 (stereo not shown) [Compound 172]	51 to 75
COc1cc(OC)cc(C(=O)Nc2cccc3c(=O)n(CC4(O)CCCCC4)ccc23)c1 [Compound 19]	0 to 25
CC(O)Cn1ccc2c(NC(=O)CCc3ccc4c(c3)OCO4)cccc2c1=O (stereo not shown) [Compound 134]	0 to 25
Cc1ccccc1C(=O)Nc1cccc2c(=O)n(CC(C)O)ccc12 (stereo not shown) [Compound 139]	26 to 50
COc1ccc(C(=O)Nc2cccc3c(=O)n(C(C)CO)ccc23)cc1Cl (stereo not shown) [Compound 92]	0 to 25
Cc1ccc(C(=O)Nc2cccc3c(=O)n(CC(C)O)ccc23)c(C)c1 (stereo not shown) [Compound 141]	0 to 25
CC(CO)n1ccc2c(NC(=O)CCc3ccc4c(c3)OCO4)cccc2c1=O (stereo not shown) [Compound 94]	0 to 25
Cc1ccc(C)c(C(=O)Nc2cccc3c(=O)n(CC(C)O)ccc23)c1 (stereo not shown) [Compound 142]	0 to 25
CC(O)Cn1ccc2c(NC(=O)c3ccc4ccccc4c3)cccc2c1=O (stereo not shown) [Compound 152]	0 to 25
Cc1ccccc1CC(=O)Nc1cccc2c(=O)n(CC(C)O)ccc12 (stereo not shown) [Compound 157]	0 to 25
CC(O)Cn1ccc2c(NC(=O)Cc3ccccc3Cl)cccc2c1=O (stereo not shown) [Compound 154]	0 to 25
Cc1ccc(C(=O)Nc2cccc3c(=O)n(C(C)CO)ccc23)c(C)c1 (stereo not shown) [Compound 99]	0 to 25
COc1cccc(CCC(=O)Nc2cccc3c(=O)n(CC(C)O)ccc23)c1 (stereo not shown) [Compound 128]	0 to 25
CC(O)Cn1ccc2c(NC(=O)c3cc4ccccc4o3)cccc2c1=O (stereo not shown) [Compound 164]	0 to 25
Cc1cc(C(=O)Nc2cccc3c(=O)n(CC(C)O)ccc23)ccc1Cl (stereo not shown) [Compound 135]	0 to 25
CCOc1ccc(C(=O)Nc2cccc3c(=O)n(CC(C)O)ccc23)cc1 (stereo not shown) [Compound 145]	0 to 25

Same assay, conditions: 0.1 μM compound; differentiated THP-1 cells, BzATP 250 uM; "*" symbols; read-out: IL-1β % Inhib. @ 0.3 or 0.1 uM

Compound	inhibition at 0.1 µM [%]
COc1ccc(OC)c(CC(=O)Nc2cccc3c(=O)n(CC(C)(C)O)ccc23)c1 [Compound 210]	0 to 25
CC(C)(O)Cn1ccc2c(NC(=O)c3cccc4ccccc34)cccc2c1=O [Compound 204]	0 to 25
Cc1cc(Cl)ccc1C(=O)Nc1cccc2c(=O)n(CC(C)(C)O)ccc12 [Compound 221]	26 to 50
CC(C)(O)Cn1ccc2c(NC(=O)c3cc(Cl)cc(Cl)c3)cccc2c1=O [Compound 203]	0 to 25

Same assay, conditions: 0.3 μM compound (symbols +); differentiated THP-1 cells, BzATP 250 uM; read-out: IL-1β % Inhib. @ 0.3 or 0.1 uM

Compound	inhibition at 0.3 µM [%]
COc1cc(CC(=O)Nc2cccc3c(=O)n(CC4(O)CCCCC4)ccc23)cc(OC)c1 [Compound 39]	0 to 25
COc1ccc(CC(=O)Nc2cccc3c(=O)n(CC4(O)CCCCC4)ccc23)cc1OC [Compound 31]	0 to 25
O=C(Cc1ccc(C(F)(F)F)cc1)Nc1cccc2c1CCN(CCO)C2=O [Compound 60]	26 to 50
CCOc1ccccc1CC(=O)Nc1cccc2c(=O)n(CC3(O)CCCCC3)ccc12 [Compound 50]	0 to 25
O=C(Cc1ccc(Cl)cc1Cl)Nc1cccc2c(=O)n(C(CO)CO)ccc12 [Compound 82]	51 to 75
O=C(Cc1ccccc1F)Nc1cccc2c(=O)n(CC3(O)CCCCC3)ccc12 [Compound 28]	0 to 25

Same assay, conditions: 0.3 μM compound; differentiated THP-1 cells, BzATP 250 uM; "+" symbols; read-out: IL-1β % Inhib. @ 0.3 or 0.1 uM

Compound	inhibition at 0.3 µM [%]
CC(C(=O)Nc1cccc2c(=O)n([C@H](C)C(N)=O)ccc12)c1ccc(F)cc1 (stereo partly shown) [Compound 299]	> 76
O=C(Cc1ccc(C(F)(F)F)cc1C(F)(F)F)Nc1cccc2c(=O)n(CCO)ccc12 [Compound 230]	> 76
CNC(=O)[C@@H](C(C)C)n1ccc2c(NC(=O)[C@@H](C)c3ccc(Cl)cc3)cccc2c1=O [Compound 276, (R)-2-{5-[(S)-2-(4-Chloro-phenyl)-propionylamino]-1-oxo-1H-isoquinolin-2-yl}-3,N-dimethyl-butyramide]	> 76
C[C@@H](CO)n1ccc2c(NC(=O)Cc3cccc(C(F)(F)F)c3F)cccc2c1=O [Compound 325]	> 76
C[C@H](C(N)=O)n1ccc2c(NC(=O)Cc3c(F)cccc3F)cccc2c1=O [Compound 292]	0 to 25
O=C(Cc1ccc(Cl)c(F)c1)Nc1cccc2c(=O)n(CCO)ccc12 [Compound 354]	> 76
CC(C(=O)Nc1cccc2c(=O)n(CCO)ccc12)c1ccc(Cl)cc1 (stereo not shown) [Compound 244]	26 to 50
CC(C)C[C@H](CO)n1ccc2c(NC(=O)[C@@H](C)c3ccc(Cl)cc3)cccc2c1=O [Compound 271]	> 76
O=C(Cc1ccc(Cl)c(Cl)c1)Nc1cccc2c(=O)n(C[C@H]3CCCN3)ccc12 [Compound 245]	> 76
C[C@H](C(=O)Nc1cccc2c(=O)n([C@@H](C(N)=O)c3ccccc3)ccc12)c1ccc(Cl)c(Cl)c1 [Compound 278, (S)—N-[2-((R)-Carbamoyl-phenyl-methyl)-1-oxo-1,2-dihydro-isoquinolin-5-yl]-2-(3,4-dichloro-phenyl)-propionamide]	> 76
C[C@@H](C(N)=O)n1ccc2c(NC(=O)Cc3ccc(C(F)(F)F)c(F)c3)cccc2c1=O [Compound 347]	> 76
CC(C)C[C@H](CO)n1ccc2c(NC(=O)Cc3ccc(Cl)c(Cl)c3)cccc2c1=O [Compound 275]	> 76
CC(=O)NCCn1ccc2c(NC(=O)Cc3ccc(Cl)c(C(F)(F)F)c3)cccc2c1=O [Compound 391]	> 76
C[C@H](C(N)=O)n1ccc2c(NC(=O)Cc3ccc(F)cc3Cl)cccc2c1=O [Compound 291]	> 76
O=C(Cc1ccc(Cl)c(C(F)(F)F)c1)Nc1cccc2c(=O)n(C[C@H]3CCCN3)ccc12 [Compound 243]	> 76
CC(C)(CO)n1ccc2c(NC(=O)Cc3ccc(C(F)(F)F)cc3C(F)(F)F)cccc2c1=O [Compound 366]	0 to 25
NCC(CCl)Cn1ccc2c(NC(=O)Cc3ccc(Cl)c(C(F)(F)F)c3)cccc2c1=O (stereo not shown) [Compound 258, N-[2-(3-Amino-2-chloromethyl-propyl)-1-oxo-1,2-dihydro-isoquinolin-5-yl]-2-(4-chloro-3-trifluoromethyl-phenyl)-acetamide]	> 76
CC(C)[C@H](C(=O)NC1CC1)n1ccc2c(NC(=O)[C@@H](C)c3ccc(Cl)cc3)cccc2c1=O [Compound 281, (R)-2-{5-[(S)-2-(4-Chloro-phenyl)-propionylamino]-1-oxo-1H-isoquinolin-2-yl}-N-cyclopropyl-3-methyl-butyramide]	> 76

Same assay, conditions: THP-1 cells, BzATP 250 uM, IL-1β by ELISA

Compound	IC50 [nM]
CC(=O)NCCn1ccc2c(NC(=O)Cc3ccc(Cl)c(C(F)(F)F)c3)cccc2c1=O [Compound 391]	0.39
